≈ marks a conversion by molar mass, not a printed value.
These compounds were tested on methane production from ruminal fluid (assay: in vitro assay of inhibition of methane production from ruminal fluid). Settings: at 1 μg./ml.; in vitro rumen fluid, 39° C., 15-16 hours.
Type: cell-based, steers (pooled rumen fluid)
Method: Rumen fluid is collected on a regular routine basis from two steers, which are fed on the same hay-plus-concentrate diet. Sampling time is standardised as far as possible, and the fluid from the two animals is pooled on a 50/50 basis. Large particulate matter is removed by filtering the pooled fluid through four layers of muslin cloth. The filtrate is then diluted in the ratio of one volume of filtrate to three volumes of an artificial rumen fluid (prepared as described by G. L. Bales et al., Journal of Dairy Science, 1976, volume 59, page 1850, but omitting acetic acid), and the pH of the mixture is adjusted to 6.9-7.0 with saturated aqueous sodium carbonate solution. Aliquots (50 ml.) of this mixture are dispensed into 100 ml. conical flasks containing dried ground hay (0.5 g.), and each flask is used to test a test compound at a particular concentration.
The test compound is added to the conical flask as a solution in ethanol, the flask is flushed with carbon dioxide gas, stoppered with a suba-seal, and incubated at 39° C. for 15-16 hours. After one hour, a narrow bore needle is inserted through the suba-seal to relieve the gas pressure, and the needle is withdrawn 30 minutes before the incubation is ended. Fermentation is then stopped by placing the flask in ice, and after 15 minutes cooling, the gas over the liquid is analysed for methane by gas chromatography, and the concentration of the test compound required to produce a 50% reduction in methane production (ED50 in μg./ml.) is calculated.
The test of methane inhibition described in Example 12 was repeated for various other compounds, to give the results shown below. The results are expressed as the percentage inhibition of methane production caused by 1 μg./ml. of a test compound, except for those compounds indicated by *, for which 3 μg./ml. was used.

SMILES	inhibition at 1 µg/mL [%]
Cc1ccc(S(=O)(=O)Nc2ccc3c(c2)C(=O)NC(C(Cl)(Cl)Cl)O3)cc1 (centres unmarked) [3,4-dihydro-6-tosylamino-2-trichloromethyl-2H-benzo[e]-[1,3]-oxazin-4-one]	94

Same assay, conditions: at 3 μg./ml.; in vitro rumen fluid, 39° C., 15-16 hours; read-out: % Methane Inhibition (compounds indicated by *)

SMILES	inhibition at 3 µg/mL [%]
O=C1NC(C(Cl)(Cl)Cl)Oc2ccc(NCc3ccc(Cl)cc3)cc21 (centres unmarked) [6-p-chlorobenzylamino-3,4-dihydro-2-tichloromethyl-2H-benzo[e]-[1,3]-oxazin-4l-one]	86

Same assay, conditions: in vitro, diluted rumen fluid with dried ground hay, pH 6.9-7.0, 39° C., 15-16 hours; read-out: ED50, concentration of the test compound required to produce a 50% reduction in methane production

IC50 [µg/mL]	SMILES
0.3 (≈ 1 µM)	O=C1NC(C(Cl)(Cl)Cl)Nc2ccc(Cl)cc21 (centres unmarked) [drawing 5; R3=Cl; R5=H; R6=H]
0.5 (≈ 1.45 µM)	O=C1NC(C(Cl)(Cl)Cl)Oc2ccc(Br)cc21 (centres unmarked) [drawing 6; R3=Br; R5=H]
0.5 (≈ 1.69 µM)	COc1ccc2c(c1)C(=O)NC(C(Cl)(Cl)Cl)O2 (centres unmarked) [drawing 6; R3=CH3 O; R5=H, 3,4-dihydro-6-methoxy-2-trichloromethyl-2H-benzo[e]-[1,3]-oxazin-4-one]
1 (≈ 3.56 µM)	Cc1ccc2c(c1)C(=O)NC(C(Cl)(Cl)Cl)O2 (centres unmarked) [drawing 6; R3=CH3; R5=H]
0.5 (≈ 1.88 µM)	O=C1NC(C(Cl)(Cl)Cl)Oc2ccccc21 (centres unmarked) [drawing 6; R3=H; R5=H, 3,4-dihydro-2-trichloromethyl-2H-benzo[e]-[1,3]-oxazin-4-one]
0.5 (≈ 1.77 µM)	O=C1NC(C(Cl)(Cl)Cl)Oc2ccc(O)cc21 (centres unmarked) [drawing 6; R3=HO; R5=H, 3,4-dihydro-6-hydroxy-2-trichloromethyl-2H-benzo[e]-[1,3]-oxazin-4-one]
0.3 (≈ 1.06 µM)	COc1ccc2c(c1)COC(C(Cl)(Cl)Cl)N2 (centres unmarked) [drawing 7; R3=CH3 O, 1,2-dihydro-6-methoxy-2-trichloromethyl-4H-benzo[d]-[1,3]-oxazine]
3 (≈ 11.3 µM)	Cc1ccc2c(c1)COC(C(Cl)(Cl)Cl)N2 (centres unmarked) [drawing 7; R3=CH3, 1,2-dihydro-6-methyl-2-trichloromethyl-4H-benzo[d]-[1,3]oxazine]
0.3 (≈ 1.08 µM)	N#Cc1ccc2c(c1)COC(C(Cl)(Cl)Cl)N2 (centres unmarked) [drawing 7; R3=CN, 1,2-dihydro-2-trichloromethyl-4H-benzo[d]-[1,3]-oxazine-6-carbonitrile]
1 (≈ 3.96 µM)	ClC(Cl)(Cl)C1Nc2ccccc2CO1 (centres unmarked) [drawing 7; R3=H, 1,2-dihydro-2-trichloromethyl-4H-benzo[d]-[1,3]-oxazine]
1 (≈ 2.64 µM)	ClC(Cl)(Cl)C1Nc2ccc(I)cc2CO1 (centres unmarked) [drawing 7; R3=I]

More lines, now with the values behind:

SMILES	IC50 [µg/mL]
CN1C(=O)c2ccccc2N(C)C1C(Cl)(Cl)Cl (centres unmarked) [drawing 5; R3=H; R5=CH3; R6=CH3]	1 (≈ 3.41 µM)
CN1C(=O)c2ccccc2NC1C(Cl)(Cl)Cl (centres unmarked) [drawing 5; R3=H; R5=CH3; R6=H]	1 (≈ 3.58 µM)
CN1c2ccccc2C(=O)NC1C(Cl)(Cl)Cl (centres unmarked) [drawing 5; R3=H; R5=H; R6=CH3]	0.3 (≈ 1.07 µM)
O=C1NC(C(Cl)(Cl)Cl)Nc2ccccc21 (centres unmarked) [drawing 5; R3=H; R5=H; R6=H, 1,2-dihydro-2-trichloromethylquinazolin-4-one]	0.3 (≈ 1.13 µM)
O=C1NC(C(Cl)(Cl)Cl)Nc2ccc([N+](=O)[O-])cc21 (centres unmarked) [drawing 5; R3=NO2; R5=H; R6=H, 1,2-dihydro-6-nitro-2-trichloromethylquinazolin-4-one]	3 (≈ 9.66 µM)
CCN(CC)C(=O)c1ccc2c(c1)C(=O)NC(C(Cl)(Cl)Cl)O2 (centres unmarked) [drawing 6; R3=(C2 H5)2 N . CO; R5=H, 3,4-dihydro-N,N-diethyl-4-oxo-2-trichloromethyl-2H-benzo[e]-[1,3]-oxazine-6-carboxamide]	0.3 (≈ 0.82 µM)
CCC(=O)Oc1ccc2c(c1)C(=O)N(C(=O)CC)C(C(Cl)(Cl)Cl)O2 (centres unmarked) [drawing 6; R3=C2 H5 CO . O; R5=C2 H5 CO, 3,4-dihydro-3-propionyl-6-propionyloxy-2-trichloromethyl-2H-benzo[e]-[1,3]-oxazin-4-one]	0.3 (≈ 0.76 µM)
CCC(=O)Oc1ccc2c(c1)C(=O)NC(C(Cl)(Cl)Cl)O2 (centres unmarked) [drawing 6; R3=C2 H5 CO . O; R5=H, 3,4-dihydro-6-propionyloxy-2-trichloromethyl-2H-benzo[e]-[1,3]-oxazin-4-one]	0.3 (≈ 0.886 µM)
O=C1NC(C(Cl)(Cl)Cl)Oc2ccc(OCc3ccccc3)cc21 (centres unmarked) [drawing 6; R3=C6 H5 . CH2 O; R5=H, 6-benzyloxy-3,4-dihydro-2-trichloromethyl-2H-benzo[e]-[1,3]-oxazin-4-one]	10 (≈ 26.8 µM)
CCCNC(=O)c1ccc2c(c1)C(=O)NC(C(Cl)(Cl)Cl)O2 (centres unmarked) [drawing 6; R3=CH3 (CH2)2 NH . CO; R5=H, 3,4-dihydro-4-oxo-N-propyl-2-trichloromethyl-2H-benzo[e]-[1,3]-oxazine-6-carboxamide]	0.3 (≈ 0.853 µM)
CCCCOC(=O)c1ccc2c(c1)C(=O)NC(C(Cl)(Cl)Cl)O2 (centres unmarked) [drawing 6; R3=CH3 (CH2)3 O . CO; R5=H, butyl 3,4-dihydro-4-oxo-2-trichloromethyl-2H-benzo[e]-[1,3]-oxazine-6-carboxylate]	1 (≈ 2.73 µM)
CCCCOc1ccc2c(c1)C(=O)NC(C(Cl)(Cl)Cl)O2 (centres unmarked) [drawing 6; R3=CH3 (CH2)3 O; R5=H, 6-butyloxy-3,4-dihydro-2-trichloromethyl-2H-benzo[e]-[1,3]-oxazin-4-one]	3 (≈ 8.86 µM)
CC(=O)Oc1ccc2c(c1)C(=O)N(C(C)=O)C(C(Cl)(Cl)Cl)O2 (centres unmarked) [drawing 6; R3=CH3 CO . O; R5=CH3 CO, 6-acetoxy-3-acetyl-3,4-dihydro-2-trichloromethyl-2H-benzo[e]-[1,3]-oxazin-4-one]	1 (≈ 2.73 µM)
CC(=O)Oc1ccc2c(c1)C(=O)NC(C(Cl)(Cl)Cl)O2 (centres unmarked) [drawing 6; R3=CH3 CO . O; R5=H, 6-acetoxy-3,4-dihydro-2-trichloromethyl-2H-benzo[e]-[1,3]-oxazin-4-one]	0.3 (≈ 0.924 µM)
COC(=O)c1ccc2c(c1)C(=O)NC(C(Cl)(Cl)Cl)O2 (centres unmarked) [drawing 6; R3=CH3 O . CO; R5=H, methyl 3,4-dihydro-4-oxo-2-trichloromethyl-2H-benzo[e]-[1,3]-oxazine-6-carboxylate]	3 (≈ 9.24 µM)
COc1ccc2c(c1)C(=O)N(C)C(C(Cl)(Cl)Cl)O2 (centres unmarked) [drawing 6; R3=CH3 O; R5=CH3, 3,4-dihydro-6-methoxy-3-methyl-2-trichloromethyl-2H-benzo[e]-[1,3]-oxazin-4-one]	3 (≈ 9.66 µM)
CC(=O)N1C(=O)c2ccccc2OC1C(Cl)(Cl)Cl (centres unmarked) [drawing 6; R3=H; R5=CH3 CO, 3-acetyl-3,4-dihydro-2-trichloromethyl-2H-benzo[e]-[1,3]-oxazin-4-one]	1 (≈ 3.24 µM)
O=CN1C(=O)c2ccccc2OC1C(Cl)(Cl)Cl (centres unmarked) [drawing 6; R3=H; R5=HCO, 3-formyl-3,4-dihydro-2-trichloromethyl-2H-benzo[e]-[1,3]-oxazin-4-one]	0.5 (≈ 1.7 µM)
O=C(O)c1ccc2c(c1)C(=O)NC(C(Cl)(Cl)Cl)O2 (centres unmarked) [drawing 6; R3=HO . CO; R5=H, 3,4-dihydro-4-oxo-2-trichloromethyl-2H-benzo[e]-[1,3]-oxazine-6-carboxylicacid]	0.3 (≈ 0.966 µM)
NC(=O)c1ccc2c(c1)C(=O)NC(C(Cl)(Cl)Cl)O2 (centres unmarked) [drawing 6; R3=NH2 CO; R5=H, 3,4-dihydro-4-oxo-2-trichloromethyl-2H-benzo[e]-[1,3]-oxazine-6-carboxamide]	0.3 (≈ 0.969 µM)
O=C1NC(C(Cl)(Cl)Cl)Oc2ccc([N+](=O)[O-])cc21 (centres unmarked) [drawing 6; R3=NO2; R5=H]	1 (≈ 3.21 µM)
O=C(Oc1ccc2c(c1)C(=O)NC(C(Cl)(Cl)Cl)O2)c1ccc(Cl)cc1 (centres unmarked) [drawing 6; R3=p-Cl . C6 H4 CO . O; R5=H, 6-p-chlorobenzoyloxy-3,4-dihydro-2-trichloromethyl-2H-benzo[e]-[1,3]-oxazin-4-one]	1 (≈ 2.37 µM)
